Measurements published in patent US9126945B2, “N-(3-carbamoylphenly)-1H-pyrazole-5-carboxamide derivatives and the use thereof for controlling animal pests” (BAYER INTELLECTUAL PROPERTY GMBH, priority 2011, dated 2015).

How the values were obtained:
[1] = tested on: Boophilus microplus females of the SP-resistant Parkhurst strain; test: Boophilus microplus test (DIP); type: in vivo; conditions: 100 ppm
Protocol: Boophilus microplus Test (DIP)
Test animals: adult engorged Boophilus microplus females of the SP-resistant Parkhurst strain
Solvent: dimethyl sulphoxide
10 mg of active compound are dissolved in 0.5 ml of dimethyl sulphoxide. For the purpose of preparing a suitable formulation, the active compound solution is diluted with water to the concentration desired in each case.
This active compound preparation is pipetted into tubes. 8-10 ticks are transferred into a further tube with holes. The tube is immersed into the active compound formulation, and all ticks are completely wetted. After the liquid has rum off, the ticks are transferred to filter discs in plastic dishes and kept in a climatized room. The activity is assessed after 7 days by laying of fertile eggs. Eggs whose fertility is not outwardly visible are stored in glass tubes in a climate-controlled cabinet until the larvae hatch. An efficacy of 100% means that none of the ticks has laid any fertile eggs.
10 mg of active compound are dissolved in 0.5 ml of dimethyl sulphoxide. For the purpose of preparing a suitable formulation, the active compound solution is diluted with water to the concentration desired in each case (in ppm).
This active compound preparation is pipetted into tubes. 8-10 ticks are transferred into a further tube with holes. The tube is immersed into the active compound formulation, and all ticks are completely wetted. After the liquid has run out, the ticks are transferred onto filter discs in plastic dishes and stored in a climate-controlled room.
The activity is assessed after the desired time by laying of fertile eggs. Eggs whose fertility is not evident from the outside are kept in glass tubes in a climate-controlled cabinet until the larvae have hatched. An effect of 100% means that none of the ticks has laid any fertile eggs.

Myzus persicae = test: Myzus test (MYZUPE spray treatment); type: in vivo
Protocol: Myzus test (Myzupe spray treatment)
After 6 days, the efficacy in % is determined.
Myzus Test (MYZUPE Spray Treatment)

Phaedon cochleariae = test: Phaedon test (PHAECO spray treatment), Chinese cabbage leaf discs
[2] = Phaedon cochleariae, in Brassica rapa, foliar, 168 h, read-out: % Activity dat

Question: For `Cn1nc(C(F)(F)C(F)(F)F)c(C(F)(F)F)c1C(=O)Nc1ccc(Cl)c(C(=O)NC2(C#N)CC2)c1` [Example 10], which “efficacy in % (laying of fertile eggs)” value ([1]; after 7 days) is on record?
Answer: Its value is 100%.

Question: What about the inhibition at 100 ppm ([1]; Rhipicephalus microplus, 168 h, BOOPMI DIP, 7 dat) of the same molecule?
Answer: The inhibition at 100 ppm was 100%.

Question: What about the inhibition at 20 g/ha (Myzus persicae; Myzus persicae, 144 h, MYZUPE, 20 g/ha, 6 dat) of the same molecule?
Answer: Its inhibition at 20 g/ha is 80%.

Question: And the inhibition at 100 g/ha (Myzus persicae; Myzus persicae, 144 h, MYZUPE, 100 g/ha, 6 dat)?
Answer: The inhibition at 100 g/ha was 100%.

Question: And the inhibition at 500 g/ha (Myzus persicae; Myzus persicae, 144 h, MYZUPE, 500 g/ha, 6 dat)?
Answer: The inhibition at 500 g/ha was 100%.

Question: And the efficacy in % (Myzus persicae; application rate 500 g/ha, after 6 days)?
Answer: Its efficacy in % is 100%.

Question: What about the inhibition at 20 g/ha (Phaedon cochleariae; [2]) of the same molecule?
Answer: Its inhibition at 20 g/ha is 100%.

Question: And the inhibition at 100 g/ha (Phaedon cochleariae; [2])?
Answer: Its inhibition at 100 g/ha is 100%.

Question: And the efficacy in % (Phaedon cochleariae; application rate 500 g/ha, after 7 days)?
Answer: The efficacy in % was 100%.
